{
  "source": "patent US20220378042A1",
  "about": "“Herbicide combinations comprising glufosinate and oxyfluorfen” (BASF SE, priority 2020, published 2022)",
  "key": {"Chenopodium album": {"tested_on": "Chenopodium album", "assay": "greenhouse post-emergence herbicidal activity on Chenopodium album", "format": "in vivo", "conditions": "for inhibition at 327 g/ha: read-out: Solo Glufosinate % activity; for inhibition at 10.2 g/ha: 10.2 g ai/ha, scale 0-100% damage vs untreated, read-out: Solo Oxyfluorfen % activity", "text": "(§1) For the post-emergence treatment, the test plants were first grown to 3 to 4 inch (7.6 to 10.2 cm) tall, and only then treated. Here, the herbicidal compositions were suspended or emulsified in water as distribution medium and sprayed using finely distributing nozzles.\n(§2) The herbicide compounds applied in the examples were used as commercially available formulations which have been diluted with deionized water to a suitable concentration.\n(§3) Oxyfluorfen (commercial product name: Goal 2XL) was used as an emulsifiable concentrate having an active ingredient concentration of 240 g/l. Glufosinate (commercial product name: Liberty) was used as an aqueous soluble liquid of glufosinate ammonium having an active ingredient concentration of 280 g/l. Adjuvants of ammonium sulfate (AMS) and non-ionic surfactant (NIS) were added in all treatments. AMS and NIS were AMS Liquid and Induce at rates of 1680 g/ha and 0.25% (v/v), respectively.\n(§4) The test period extended over 28 days after treatment (DAT). During this time, the plants were tended and their response to the individual treatments was evaluated.\n(§5) The evaluation for the damage caused by the chemical compositions was carried out using a scale from 0 to 100%, compared to the untreated control plants. Here, 0 means no damage and 100 means complete destruction of the plants.\n(§6) The plants used in the greenhouse experiments belonged to the following species:\n(§7) E=X+Y−(X·Y/100) • where X=effect in percent using Oxyfluorfen at an application rate a; • Y=effect in percent using glufosinate at application rate b; • E=expected effect (in %) of Oxyfluorfen plus glufosinate at application rates a+b.\n(§8) The value E corresponds to the effect (plant damage or injury) which is to be expected if the activity of the individual compounds is just additive. If the observed effect is higher than the value E calculated according to Colby, a synergistic effect is present."}, "Echinochloa crus-galli": {"tested_on": "Echinochloa crus-galli", "assay": "greenhouse post-emergence herbicidal activity on Echinochloa crus-galli", "format": "in vivo", "conditions": "for inhibition at 327 g/ha: read-out: Solo Glufosinate % activity; for inhibition at 10.2 g/ha: 10.2 g ai/ha, scale 0-100% damage vs untreated, read-out: Solo Oxyfluorfen % activity", "text": "as §1, §2, §3, §4, §5, §6, §7, §8"}},
  "note": "Read-outs that look alike come from different tables or passages of the source.",
  "data": [
    {"smiles": "CP(=O)(O)CCC(N)C(=O)O", "note": "(racemic) [Glufosinate, (2RS)-2-amino-4-[hydroxy(methyl)phosphinoyl]butyric acid]", "values": [
      {"measurement": "inhibition at 327 g/ha", "setting": "Chenopodium album; 168 h", "value": 81, "unit": "%"},
      {"measurement": "inhibition at 327 g/ha", "setting": "Chenopodium album; 336 h", "value": 75, "unit": "%"},
      {"measurement": "inhibition at 327 g/ha", "setting": "Chenopodium album; 504 h", "value": 78, "unit": "%"},
      {"measurement": "inhibition at 327 g/ha", "setting": "Echinochloa crus-galli; 168 h", "value": 84, "unit": "%"},
      {"measurement": "inhibition at 327 g/ha", "setting": "Echinochloa crus-galli; 336 h", "value": 25, "unit": "%"},
      {"measurement": "inhibition at 327 g/ha", "setting": "Echinochloa crus-galli; 504 h", "value": 20, "unit": "%"}
    ]},
    {"smiles": "CCOc1cc(Oc2ccc(C(F)(F)F)cc2Cl)ccc1[N+](=O)[O-]", "note": "[Oxyfluorfen]", "values": [
      {"measurement": "inhibition at 10.2 g/ha", "setting": "Chenopodium album; 168 h, 7 DAT", "value": 33, "unit": "%"},
      {"measurement": "inhibition at 10.2 g/ha", "setting": "Chenopodium album; 336 h, 14 DAT", "value": 25, "unit": "%"},
      {"measurement": "inhibition at 10.2 g/ha", "setting": "Chenopodium album; 504 h, 21 DAT", "value": 30, "unit": "%"},
      {"measurement": "inhibition at 10.2 g/ha", "setting": "Echinochloa crus-galli; 168 h, 7 DAT", "value": 28, "unit": "%"},
      {"measurement": "inhibition at 10.2 g/ha", "setting": "Echinochloa crus-galli; 336 h, 14 DAT", "value": 15, "unit": "%"},
      {"measurement": "inhibition at 10.2 g/ha", "setting": "Echinochloa crus-galli; 504 h, 21 DAT", "value": 20, "unit": "%"}
    ]}
  ]
}
